Assay results taken from ChEMBL document CHEMBL3102804, “Synthesis, anticancer activity and DNA-binding properties of novel 4-pyrazolyl-1,8-naphthalimide derivatives” (Bioorg Med Chem Lett, 2014).
Activity calls are given as the source filed them. The rule behind the calls is not given here.

Columns and labels:
HeLa [1] = experiment: Cytotoxicity against human HeLa cells assessed as cell viability after 48 hrs by MTT assay; type: functional, cell-based
A549 [2] = experiment: Cytotoxicity against human A549 cells assessed as cell viability after 48 hrs by MTT assay; type: functional, cell-based; details: A549, 48 h
MCF7 [3] = experiment: Cytotoxicity against human MCF7 cells assessed as cell viability after 48 hrs by MTT assay; type: functional, cell-based; details: MCF7, 48 h
A549 [4] = experiment: Potency index, ratio of amonafide IC50 to compound IC50 for human A549 cells; type: functional
DNA [5] = experiment: Binding affinity to calf thymus DNA by fluorescent spectra analysis; type: nucleic-acid assay; details: Bos taurus
DNA [6] = experiment: Binding affinity to calf thymus DNA at compound to DNA ratio 0.1 to 0.5 by CD spectra analysis; type: nucleic-acid assay; details: Bos taurus
DNA [7] = experiment: Binding affinity to calf thymus DNA assessed as hypochromicity/bathochromic shift after 120 mins by UV-vis absorption spectra analysis; type: nucleic-acid assay; details: Bos taurus
DNA [8] = experiment: Binding affinity to calf thymus DNA assessed as melting temperature at 5 uM by UV spectrophotometric analysis (reference value: 59.7 degC); type: nucleic-acid assay; details: Bos taurus
MCF7 [9] = experiment: Potency index, ratio of amonafide IC50 to compound IC50 for human MCF7 cells; type: functional
DNA [10] = experiment: Binding affinity to calf thymus DNA at compound to DNA ratio >= 2 by CD spectra analysis; type: nucleic-acid assay; details: Bos taurus
DNA [11] = experiment: Binding affinity to calf thymus DNA assessed as change in melting temperature at 5 uM by UV spectrophotometric analysis; type: nucleic-acid assay; details: Bos taurus
HeLa [12] = experiment: Potency index, ratio of amonafide IC50 to compound IC50 for human HeLa cells; type: functional

Row | SMILES | IC50 (HeLa [1]) [µM] | IC50 (A549 [2]) [µM] | IC50 (MCF7 [3]) [µM] | also measured
1 | CN(C)CCN1C(=O)c2cccc3c(-n4cc(-c5ccc(Br)cc5)cn4)ccc(c23)C1=O | 3.47 | > 50 | 10.7 | –
2 | COc1ccc(-c2cnn(-c3ccc4c5c(cccc35)C(=O)N(CCN(C)C)C4=O)c2)cc1OC | 3.5 | 11.8 | 0.79 | –
3 | CN(C)CCN1C(=O)c2cccc3c(-n4cc(-c5cc(C(F)(F)F)cc(C(F)(F)F)c5)cn4)ccc(c23)C1=O | 16.6 | 25.4 | 3.39 | –
4 | CN(C)CCN1C(=O)c2cccc3c(-n4cc(-c5ccc(C(F)(F)F)cc5)cn4)ccc(c23)C1=O | 13.3 | 25 | 4.26 | –
5 | CN(C)CCN1C(=O)c2cccc3c(-n4cccn4)ccc(c23)C1=O | 9.47 | > 50 | 2.72 | –
6 | CN(C)CCN1C(=O)c2cccc3c(-n4cc(-c5ccc(Cl)cc5)cn4)ccc(c23)C1=O | 10.6 | 17.2 | 4.24 | –
7 | Cc1ccc(-c2cnn(-c3ccc4c5c(cccc35)C(=O)N(CCN(C)C)C4=O)c2)cc1 | 4.6 | 5.09 | 17 | Ratio IC50 (A549 [4]): 2.6
8 | CN(C)CCN1C(=O)c2cccc3cc(N)cc(c23)C1=O [AMONAFIDE] | 6.71 | – | – | –
9 | COc1cccc(-c2cnn(-c3ccc4c5c(cccc35)C(=O)N(CCN(C)C)C4=O)c2)c1 | 14.6 | 12 | 1.99 | –
10 | COc1ccc(-c2cnn(-c3ccc4c5c(cccc35)C(=O)N(CCN(C)C)C4=O)c2)cc1 | 4.99 | 7.69 | 2.62 | –
11 | CN(C)CCN1C(=O)c2cccc3c(-n4cc(-c5ccc(F)cc5)cn4)ccc(c23)C1=O | 3.1 | 24 | 1.56 | –
12 | COc1cc(-c2cnn(-c3ccc4c5c(cccc35)C(=O)N(CCN(C)C)C4=O)c2)cc(OC)c1OC | 3.09 | 5.14 | 0.51 | Kbapp (DNA [5]): 1.04 ×10⁴ /M; Activity (DNA [6]): Active; Kb (DNA [7]): 1.01 ×10⁴ /M; Tm (DNA [8]): 61.5 °C; Ratio IC50 (A549 [4]): 2.5; Ratio IC50 (MCF7 [9]): 3.3; Activity (DNA [10]): Active; ΔTm (DNA [11]): 1.8 °C; Ratio IC50 (HeLa [12]): 2.2
13 | CN(C)CCN1C(=O)c2cccc3c(-n4cc(-c5ccccc5)cn4)ccc(c23)C1=O | 6.5 | 8.52 | 1.58 | –
